Results reported in the NIST ThermoML archive (doi:10.1021/je050065n).
Numbers after ± are expanded uncertainties.

Assays:
[1] = molar heat capacity at constant pressure; details: 101.33 kPa, Liquid
[2] = Molar enthalpy of transition or fusion; details: Crystal

SMILES: CCCCCCCCCCC(=O)OCC [ethyl undecanoate]
- molar heat capacity at constant pressure ([1]; 278.79 K): 424.54 ± 2.5 J/K/mol
- molar heat capacity at constant pressure ([1]; 280.72 K): 424.74 ± 2.5 J/K/mol
- molar heat capacity at constant pressure ([1]; 282.65 K): 425.25 ± 2.5 J/K/mol
- molar heat capacity at constant pressure ([1]; 284.57 K): 425.82 ± 2.5 J/K/mol
- molar heat capacity at constant pressure ([1]; 286.49 K): 426.92 ± 2.5 J/K/mol
- molar heat capacity at constant pressure ([1]; 288.42 K): 427.56 ± 2.5 J/K/mol
- molar heat capacity at constant pressure ([1]; 290.34 K): 427.6 ± 2.5 J/K/mol
- molar heat capacity at constant pressure ([1]; 292.25 K): 429.47 ± 2.5 J/K/mol
- molar heat capacity at constant pressure ([1]; 292.35 K): 429.73 ± 2.5 J/K/mol
- molar heat capacity at constant pressure ([1]; 293.82 K): 430.15 ± 2.5 J/K/mol
- molar heat capacity at constant pressure ([1]; 294.17 K): 430.48 ± 2.5 J/K/mol
- molar heat capacity at constant pressure ([1]; 295.74 K): 431.35 ± 2.5 J/K/mol
- molar heat capacity at constant pressure ([1]; 296.09 K): 431.3 ± 2.5 J/K/mol
- molar heat capacity at constant pressure ([1]; 297.65 K): 432.04 ± 2.5 J/K/mol
- molar heat capacity at constant pressure ([1]; 298 K): 431.45 ± 2.5 J/K/mol
- molar heat capacity at constant pressure ([1]; 299.55 K): 433.51 ± 2.5 J/K/mol
- molar heat capacity at constant pressure ([1]; 299.92 K): 432.3 ± 2.5 J/K/mol
- molar heat capacity at constant pressure ([1]; 301.45 K): 434.67 ± 2.5 J/K/mol
- molar heat capacity at constant pressure ([1]; 301.84 K): 434.2 ± 2.5 J/K/mol
- molar heat capacity at constant pressure ([1]; 303.35 K): 436.03 ± 2.5 J/K/mol
- molar heat capacity at constant pressure ([1]; 303.75 K): 436.09 ± 2.5 J/K/mol
- molar heat capacity at constant pressure ([1]; 305.23 K): 437.3 ± 2.5 J/K/mol
- molar heat capacity at constant pressure ([1]; 305.67 K): 436.86 ± 2.5 J/K/mol
- molar heat capacity at constant pressure ([1]; 307.12 K): 438.29 ± 2.5 J/K/mol
- molar heat capacity at constant pressure ([1]; 307.58 K): 437.94 ± 2.5 J/K/mol
- molar heat capacity at constant pressure ([1]; 309 K): 438.55 ± 2.5 J/K/mol
- molar heat capacity at constant pressure ([1]; 309.5 K): 438.69 ± 2.5 J/K/mol
- molar heat capacity at constant pressure ([1]; 310.87 K): 439.73 ± 2.6 J/K/mol
- molar heat capacity at constant pressure ([1]; 311.41 K): 439.51 ± 2.6 J/K/mol
- molar heat capacity at constant pressure ([1]; 312.74 K): 440.36 ± 2.6 J/K/mol
- molar heat capacity at constant pressure ([1]; 313.32 K): 440.63 ± 2.6 J/K/mol
- molar heat capacity at constant pressure ([1]; 314.61 K): 441.72 ± 2.6 J/K/mol
- molar heat capacity at constant pressure ([1]; 315.24 K): 441.69 ± 2.6 J/K/mol
- molar heat capacity at constant pressure ([1]; 316.48 K): 441.83 ± 2.6 J/K/mol
- molar heat capacity at constant pressure ([1]; 317.15 K): 443.16 ± 2.6 J/K/mol
- molar heat capacity at constant pressure ([1]; 318.35 K): 443.44 ± 2.6 J/K/mol
- molar heat capacity at constant pressure ([1]; 320.22 K): 444.36 ± 2.6 J/K/mol
- molar heat capacity at constant pressure ([1]; 322.09 K): 445.9 ± 2.6 J/K/mol
- molar heat capacity at constant pressure ([1]; 323.96 K): 447.6 ± 2.6 J/K/mol
- molar heat capacity at constant pressure ([1]; 325.83 K): 448.49 ± 2.6 J/K/mol
- molar heat capacity at constant pressure ([1]; 327.7 K): 449.5 ± 2.6 J/K/mol
- molar heat capacity at constant pressure ([1]; 329.57 K): 450.4 ± 2.6 J/K/mol
- molar heat capacity at constant pressure ([1]; 331.44 K): 451.66 ± 2.6 J/K/mol
- molar heat capacity at constant pressure ([1]; 333.31 K): 453.33 ± 2.6 J/K/mol
- molar heat capacity at constant pressure ([1]; 335.19 K): 455.41 ± 2.6 J/K/mol
- molar heat capacity at constant pressure ([1]; 337.06 K): 456.14 ± 2.6 J/K/mol
- molar heat capacity at constant pressure ([1]; 338.94 K): 456.81 ± 2.6 J/K/mol
- molar heat capacity at constant pressure ([1]; 340.81 K): 458.35 ± 2.6 J/K/mol
- molar heat capacity at constant pressure ([1]; 342.69 K): 459.47 ± 2.6 J/K/mol
- molar heat capacity at constant pressure ([1]; 344.57 K): 461 ± 2.6 J/K/mol
- molar heat capacity at constant pressure ([1]; 346.45 K): 462.31 ± 2.6 J/K/mol
- molar heat capacity at constant pressure ([1]; 348.34 K): 463.75 ± 2.7 J/K/mol
- molar heat capacity at constant pressure ([1]; 350.22 K): 465.1 ± 2.7 J/K/mol
- molar heat capacity at constant pressure ([1]; 352.11 K): 466.34 ± 2.7 J/K/mol
- molar heat capacity at constant pressure ([1]; 354 K): 467.34 ± 2.7 J/K/mol
- molar heat capacity at constant pressure ([1]; 355.9 K): 468.59 ± 2.7 J/K/mol
- molar heat capacity at constant pressure ([1]; 357.8 K): 469.5 ± 2.7 J/K/mol
- molar heat capacity at constant pressure ([1]; 359.7 K): 471.05 ± 2.7 J/K/mol
- molar heat capacity at constant pressure ([1]; 361.6 K): 472.21 ± 2.7 J/K/mol
- molar heat capacity at constant pressure ([1]; 363.51 K): 473.69 ± 2.7 J/K/mol
- molar heat capacity at constant pressure ([1]; 365.42 K): 475.18 ± 2.7 J/K/mol
- Molar enthalpy of transition or fusion [2]: 8.628 ± 0.0717 kcal/mol
- Triple point temperature (Crystal): 259.17 ± 0.31 K
- Normal melting temperature (Metastable crystal): -21.8 ± 0.1 °C
